Values belong to the molecule of their own block, whether it stands above or below them.
Tested on: 186277-243-T-J2-PDC complex spheroid viability
Assay: Anticancer human tumor 186277-243-T-J2-PDC patient-derived colon adenocarcinoma cell line growth inhibition [GQUAD]
Conditions: for IC50: curve of first compound; for viability, T/C: stronger effect = lower value
Method in brief: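 Tumor cells were grown as complex spheroids with HUVEC endothelial cells and mesenchymal stem cells as stroma. G-quadruplex stabilizers were combined with targeted agents over half-log dilutions from near the clinical Cmax, or from 10 microM.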

[1] = second compound 0.0316 µM, first compound 0.0316 µM
[2] = second compound 0.0316 µM, first compound 0.316 µM
[3] = second compound 0.1 µM, first compound 0.0316 µM
[4] = second compound 0.1 µM, first compound 0.316 µM
[5] = second compound 0.316 µM, first compound 0.0316 µM
[6] = second compound 0.316 µM, first compound 0.316 µM
[7] = second compound 1 µM, first compound 0.0316 µM
[8] = second compound 1 µM, first compound 0.316 µM
[9] = second compound 3.16 µM, first compound 0.0316 µM
[10] = second compound 3.16 µM, first compound 0.316 µM
[11] = second compound 10 µM, first compound 0.0316 µM
[12] = second compound 10 µM, first compound 0.316 µM
[13] = second compound 0.0316 µM, first compound 0.1 µM
[14] = second compound 0.0316 µM, first compound 1 µM
[15] = second compound 0.0316 µM, first compound 3.16 µM
[16] = second compound 0.0316 µM, first compound 10 µM
[17] = second compound 0.1 µM, first compound 0.1 µM
[18] = second compound 0.1 µM, first compound 1 µM
[19] = second compound 0.1 µM, first compound 3.16 µM
[20] = second compound 0.1 µM, first compound 10 µM
[21] = second compound 0.316 µM, first compound 0.1 µM
[22] = second compound 0.316 µM, first compound 1 µM
[23] = second compound 0.316 µM, first compound 3.16 µM
[24] = second compound 0.316 µM, first compound 10 µM
[25] = second compound 1 µM, first compound 0.1 µM
[26] = second compound 1 µM, first compound 1 µM
[27] = second compound 1 µM, first compound 3.16 µM
[28] = second compound 1 µM, first compound 10 µM
[29] = second compound 3.16 µM, first compound 0.1 µM
[30] = second compound 3.16 µM, first compound 1 µM
[31] = second compound 3.16 µM, first compound 3.16 µM
[32] = second compound 3.16 µM, first compound 10 µM
[33] = second compound 10 µM, first compound 0.1 µM
[34] = second compound 10 µM, first compound 1 µM
[35] = second compound 10 µM, first compound 3.16 µM
[36] = second compound 10 µM, first compound 10 µM
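Note: spheroids exposed to drugs for 7 days.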
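Throughout, for viability, T/C: 100% = DMSO vehicle control viability.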

IC50 (second compound 0.0316 µM): 0.00588 µM
IC50 (second compound 0.1 µM): 0.00711 µM
IC50 (second compound 0.316 µM): 0.00396 µM
IC50 (second compound 1 µM): < 0.000999 µM
IC50 (second compound 3.16 µM): < 0.000999 µM
IC50 (second compound 10 µM): < 0.000999 µM
SMILES: CCc1c2c(nc3ccc(O)cc13)-c1cc3c(c(=O)n1C2)COC(=O)[C@]3(O)CC + Cc1cnc(CNC(=O)c2c(=O)c3ccc(N4CCCN(C)CC4)nc3n3c2sc2ccccc23)cn1
viability, T/C (second compound 0.0316 µM, first compound 0.000999 µM): 90.8%
viability, T/C (second compound 0.0316 µM, first compound 0.00316 µM): 56%
viability, T/C (second compound 0.0316 µM, first compound 0.00999 µM): 46.3%
viability, T/C [1]: 27.8%
viability, T/C (second compound 0.0316 µM, first compound 0.0999 µM): 23.3%
viability, T/C [2]: 17.6%
viability, T/C (second compound 0.1 µM, first compound 0.000999 µM): 79.3%
viability, T/C (second compound 0.1 µM, first compound 0.00316 µM): 56.8%
viability, T/C (second compound 0.1 µM, first compound 0.00999 µM): 53.2%
viability, T/C [3]: 24.5%
viability, T/C (second compound 0.1 µM, first compound 0.0999 µM): 23.4%
viability, T/C [4]: 13.9%
viability, T/C (second compound 0.316 µM, first compound 0.000999 µM): 60.5%
viability, T/C (second compound 0.316 µM, first compound 0.00316 µM): 53.7%
viability, T/C (second compound 0.316 µM, first compound 0.00999 µM): 40.9%
viability, T/C [5]: 31.9%
viability, T/C (second compound 0.316 µM, first compound 0.0999 µM): 30.1%
viability, T/C [6]: 16.9%
viability, T/C (second compound 1 µM, first compound 0.000999 µM): 44.8%
viability, T/C (second compound 1 µM, first compound 0.00316 µM): 37.6%
viability, T/C (second compound 1 µM, first compound 0.00999 µM): 38.3%
viability, T/C [7]: 31.8%
viability, T/C (second compound 1 µM, first compound 0.0999 µM): 29.5%
viability, T/C [8]: 4.66%
viability, T/C (second compound 3.16 µM, first compound 0.000999 µM): 33.5%
viability, T/C (second compound 3.16 µM, first compound 0.00316 µM): 39.9%
viability, T/C (second compound 3.16 µM, first compound 0.00999 µM): 36.5%
viability, T/C [9]: 27.9%
viability, T/C (second compound 3.16 µM, first compound 0.0999 µM): 25.4%
viability, T/C [10]: 1.29%
viability, T/C (second compound 10 µM, first compound 0.000999 µM): 40.2%
viability, T/C (second compound 10 µM, first compound 0.00316 µM): 32.5%
viability, T/C (second compound 10 µM, first compound 0.00999 µM): 31.1%
viability, T/C [11]: 24.7%
viability, T/C (second compound 10 µM, first compound 0.0999 µM): 23.3%
viability, T/C [12]: 0.64%

SMILES: Cc1cccc(N(C)C(=O)C2C(O)CCN2c2nc(C)cc(C(F)(F)F)c2C#N)c1 (stereo unspecified) + Cc1[nH]c2ccc(F)cc2c1-c1nc2c3cccnc3c3ncccc3c2[nH]1
IC50 (second compound 0.0316 µM): > 10 µM
IC50 (second compound 0.1 µM): > 10 µM
IC50 (second compound 0.316 µM): > 10 µM
IC50 (second compound 1 µM): > 10 µM
IC50 (second compound 3.16 µM): > 10 µM
IC50 (second compound 10 µM): > 10 µM
viability, T/C [1]: 104%
viability, T/C [13]: 104%
viability, T/C [2]: 98.2%
viability, T/C [14]: 95.8%
viability, T/C [15]: 88.7%
viability, T/C [16]: 106%
viability, T/C [3]: 104%
viability, T/C [17]: 97.1%
viability, T/C [4]: 100%
viability, T/C [18]: 92.6%
viability, T/C [19]: 95.5%
viability, T/C [20]: 96.3%
viability, T/C [5]: 92.6%
viability, T/C [21]: 105%
viability, T/C [6]: 99.8%
viability, T/C [22]: 98%
viability, T/C [23]: 105%
viability, T/C [24]: 104%
viability, T/C [7]: 128%
viability, T/C [25]: 85.8%
viability, T/C [8]: 98.2%
viability, T/C [26]: 98.3%
viability, T/C [27]: 97%
viability, T/C [28]: 108%
viability, T/C [9]: 127%
viability, T/C [29]: 89.3%
viability, T/C [10]: 98.2%
viability, T/C [30]: 105%
viability, T/C [31]: 99.9%
viability, T/C [32]: 113%
viability, T/C [11]: 90.9%
viability, T/C [33]: 101%
viability, T/C [12]: 109%
viability, T/C [34]: 92.2%
viability, T/C [35]: 98.8%
viability, T/C [36]: 99.9%

SMILES: O=c1[nH]cc(F)c(=O)[nH]1 + CN(C)c1ccc(Nc2c3ccc(NC(=O)CCN4CCCC4)cc3nc3cc(NC(=O)CCN4CCCC4)ccc23)cc1
IC50 (second compound 0.0316 µM): > 10 µM
IC50 (second compound 0.1 µM): > 10 µM
IC50 (second compound 0.316 µM): > 10 µM
IC50 (second compound 1 µM): 7.5 µM
IC50 (second compound 3.16 µM): 6.32 µM
IC50 (second compound 10 µM): 7.04 µM
viability, T/C [1]: 99%
viability, T/C [13]: 97.1%
viability, T/C [2]: 89%
viability, T/C [14]: 98.8%
viability, T/C [15]: 68.8%
viability, T/C [16]: 50.8%
viability, T/C [3]: 98.9%
viability, T/C [17]: 87%
viability, T/C [4]: 102%
viability, T/C [18]: 102%
viability, T/C [19]: 67.5%
viability, T/C [20]: 54.2%
viability, T/C [5]: 94.2%
viability, T/C [21]: 94.5%
viability, T/C [6]: 101%
viability, T/C [22]: 93.4%
viability, T/C [23]: 62.1%
viability, T/C [24]: 51.1%
viability, T/C [7]: 87.5%
viability, T/C [25]: 91.3%
viability, T/C [8]: 98.6%
viability, T/C [26]: 112%
viability, T/C [27]: 64.7%
viability, T/C [28]: 45.1%
viability, T/C [9]: 97.2%
viability, T/C [29]: 104%
viability, T/C [10]: 104%
viability, T/C [30]: 101%
viability, T/C [31]: 66.5%
viability, T/C [32]: 39.1%
viability, T/C [11]: 90.9%
viability, T/C [33]: 98.4%
viability, T/C [12]: 98.5%
viability, T/C [34]: 102%
viability, T/C [35]: 65.3%
viability, T/C [36]: 43.3%

From PubChem BioAssay AID2060512 (Molecular Pharmacology Branch, DTP, NCI, 2025)
